Assay [1] addresses T1, NAD-dependent protein deacetylase sirtuin-3, mitochondrial (Homo sapiens) (UniProt Q9NTG7).
T1 sequence (whole entry): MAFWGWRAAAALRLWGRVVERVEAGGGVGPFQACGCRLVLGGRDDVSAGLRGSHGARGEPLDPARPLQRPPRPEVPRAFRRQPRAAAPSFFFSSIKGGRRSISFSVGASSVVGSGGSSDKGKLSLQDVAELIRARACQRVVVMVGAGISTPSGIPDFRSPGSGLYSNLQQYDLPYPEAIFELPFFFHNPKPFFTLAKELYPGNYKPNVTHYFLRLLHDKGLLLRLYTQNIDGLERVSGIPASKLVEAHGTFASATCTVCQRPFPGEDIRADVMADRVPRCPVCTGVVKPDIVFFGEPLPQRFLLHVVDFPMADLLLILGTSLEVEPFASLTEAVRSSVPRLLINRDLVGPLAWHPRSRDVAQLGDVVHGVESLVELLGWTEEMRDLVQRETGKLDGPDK
Description: Modulation of human Sirt3 (118 to 399 residues) deacetylation activity under non-steady state assessed as substrate deacetylation at low enzyme concentration with [E]0/[NAD+]0 ratio of 0.3 at 10 uM incubated for 2 mins using MnSOD peptide as substrate in presence of NAD+ by HPLC-assay relative to control. To be noted: filed as modulator.

Assay [2] deals with T1, NAD-dependent protein deacetylase sirtuin-3, mitochondrial (Homo sapiens). Put plainly: Modulation of human Sirt3 (118 to 399 residues) deacetylation activity under non-steady state assessed as substrate deacetylation at high enzyme concentration with [E]0/[NAD+]0 ratio of 0.6 at 10 uM incubated for 2 mins using MnSOD peptide as substrate in presence of NAD+ by HPLC-assay relative to control. To be noted: filed as modulator.

The target in assay [3] is T2, NAD-dependent protein deacetylase sirtuin-3, mitochondrial (Homo sapiens, UniProt Q9NTG7).
T2 sequence (Q9NTG7 whole entry): T1 sequence (whole entry)
Put plainly: Binding affinity to human Sirt3 (118 to 399 residues) assessed as dissociation constant (Koff) of ternary complex using acetylated MnSOD peptide as substrate in presence of OAADPr by short DNA nano levers based switchSENSE microfluid bio-chip analysis.

Assay [4] addresses T2, NAD-dependent protein deacetylase sirtuin-3, mitochondrial. Put plainly: Binding affinity to human Sirt3 (118 to 399 residues) assessed as dissociation constant (Koff) by short DNA nano levers based switchSENSE microfluid bio-chip analysis.
The target is the same in assay [5]. Put plainly: Binding affinity to human Sirt3 (118 to 399 residues) assessed as dissociation constant of ternary complex using acetylated MnSOD peptide as substrate in presence of OAADPr by short DNA nano levers based switchSENSE microfluid bio-chip analysis.
For assay [6] the target is unchanged. Put plainly: Modulation of human Sirt3 (118 to 399 residues) deacetylation activity under non-steady state assessed as substrate deacetylation at low enzyme concentration with [E]0/[NAD+]0 ratio of 0.1 incubated for 5 mins using MnSOD peptide as substrate in presence of NAD+ by HPLC-assay relative to control.
Assay [7] shares this target. Description: Binding affinity to human Sirt3 (118 to 399 residues) assessed as dissociation constant using acetylated MnSOD peptide as substrate in presence of honokiol by microscale thermophoresis analysis.
Assay [8] shares this target. Description: Binding affinity to human Sirt3 (118 to 399 residues) assessed as dissociation constant using acetylated MnSOD peptide as substrate by microscale thermophoresis analysis. Background: Microscale thermophoresis detects binding through changes in fluorescence in a small temperature gradient.
Assay [9] concerns the target T1, NAD-dependent protein deacetylase sirtuin-3, mitochondrial (Homo sapiens). Description: Modulation of human Sirt3 (118 to 399 residues) deacetylation activity under non-steady state assessed as substrate deacetylation at low enzyme concentration with [E]0/[NAD+]0 ratio of 0.1 at 10 uM incubated for 2 mins using MnSOD peptide as substrate in presence of NAD+ by HPLC-assay relative to control. To be noted: filed as modulator.

Assay [10] addresses T2, NAD-dependent protein deacetylase sirtuin-3, mitochondrial. Put plainly: Binding affinity to human Sirt3 (118 to 399 residues) assessed as dissociation constant using 625nM acetylated MnSOD peptide as substrate by microscale thermophoresis analysis.
For assay [11] the target is unchanged. Put plainly: Binding affinity to human Sirt3 (118 to 399 residues) assessed as dissociation constant of ternary complex using acetylated MnSOD peptide as substrate in presence of OAADPr by microscale thermophoresis analysis.

A value given as a limit tells only on which side of the number the result lay.

In the case of `CCCCNC(=O)[C@@H](Cc1ccc(Cl)cc1)NC(=O)CSC(=S)c1ccccc1`, the Activity in [1] turned out to be 100%.

As for `C=C(CC)C(=O)c1ccc(OCC(=O)N[C@H](Cc2ccc(Cl)cc2)C(=O)NCCCC)c(Cl)c1Cl`, the Activity came to 107% in assay [2] and 104% in assay [1].

Turning to `CCCCNC(=O)COc1ccc2c(c1)CCc1ccccc1C2NC(=O)CCCOc1cc([N+](=O)[O-])c(C(C)O)cc1OC` (stereo not given), the Kd in assay [3] was found to be 0.162 s⁻¹; in [4], 0.22 s⁻¹; in assay [5] it was 12.6 µM. Besides, the 50% effective concentration (EC50) in [6] was less than 5 µM.

On to `NC(=O)c1ccc[n+]([C@@H]2C[C@H](COP(=O)(O)OP(=O)(O)OC[C@H]3O[C@@H](n4cnc5c(N)ncnc54)[C@H](O)[C@@H]3O)[C@@H](O)[C@H]2O)c1`, for which the Kd in [7] was 6.6 µM; in assay [8], 7.3 µM.

Consider `Cc1ccc(-c2nc3n(n2)C(=O)CC(c2cccc4ccccc24)S3)cc1` (stereo not given), for which the Activity in [2] is 127%; in assay [9], 114%.

On to `C=CCc1ccc(O)c(-c2ccc(O)c(CC=C)c2)c1` [HONOKIOL], for which the Kd in assay [10] was found to be 2.99 µM; in [11], 0.29 µM; in assay [8], 0.97 µM. The Activity in [1] was determined as 108%.

By EC50 is commonly meant the midpoint of the concentration-response curve.

These data come from ChEMBL document CHEMBL5214958, “Discovery of novel compounds as potent activators of Sirt3” (Bioorg Med Chem, 2022).
